Earlier results in patent US20070161566A1, “Method of treating multiple sclerosis” (Teva Pharmaceutical Industries, Ltd., priority 2006, published 2007).

How the values were obtained:
[1] = tested on: chronic progressive MS patients; settings: 15 mg twice per day (30 mg per day); up to 24 months
[2] = tested on: MS patients; settings: 20 mg/day subcutaneous dose

Substance: L-glutamic acid polymer with L-alanine, L-lysine, L-tyrosine, acetate (salt) [GA]
- arrest or reversal of disease progress vs placebo [1]: did not produce statistically significant difference
- total number of enhancing lesions as measured by MRI [2]: reduce the total number of enhancing lesions
